Experimental data taken from PubChem BioAssay AID651686 (The Scripps Research Institute Molecular Screening Center, 2012).
Activity calls are given as the source filed them. How the calls were made is not given here.

System: OPRD1 counterscreen cells, luminescence, activation
Experiment: OPRD1 cell luminescence activation counter-screen – dose response, counter-screen for OPRM1-OPRD1 heterodimer activator project, late-stage follow-up (AID 651686)

Compound	EC50
CCOC(=O)C1(CCOc2ccccc2)CCN(Cc2ccc(O)c(OC)c2)CC1	> 40 µM (inactive)
CCOC(=O)C1(CCOc2ccccc2)CCN(Cc2cccn2-c2cccnc2)CC1	> 40 µM (inactive)
CCOC(=O)C1(CCc2ccccc2)CCN(Cc2ccc(NC(C)=O)cc2)CC1	1.1 µM
CCOC(=O)C1(Cc2ccccc2)CCN(Cc2cccn2-c2cccnc2)CC1	> 40 µM (inactive)
CCOC(=O)C1(CCc2ccccc2)CCN(Cc2ccccc2C)CC1	> 40 µM (inactive)
OCC1(CCc2ccccc2)CCN(Cc2cc(F)ccc2-n2cccn2)CC1	> 40 µM (inactive)
CCOC(=O)C1(CCc2ccccc2)CCN(Cc2cc(C)cc(C)c2)CC1	> 40 µM (inactive)
CCOC(=O)C1(CC2CCCCO2)CCN(Cc2c(C)cc(C)cc2-n2cccn2)CC1 (stereo unspecified)	> 40 µM (inactive)
CCOC(=O)C1(Cc2ccccc2)CCN(Cc2cccn2-c2nccs2)CC1	> 40 µM (inactive)
CCOC(=O)C1(CCc2ccccc2)CCN(Cc2ccc(OC(C)C)c(C#N)c2)CC1	> 40 µM (inactive)
CCOC(=O)C1(CCCc2ccccc2)CCN(Cc2cnn(C)c2)CC1	> 40 µM (inactive)
